Assay results from PMC4742142, “Identification of novel, in vivo active Chk1 inhibitors utilizing structure guided drug design” (Oncotarget, 2015).
Values joined by “and” are separate entries in the source; they are usually repeats but may differ in a detail not shown here. Equal values may be shown once. “Also recorded” adds a separate entry of the source. Read-outs that look alike come from different tables or passages of the source.

Legend:
pH2AX (S139) = assay: pH2AX ELISA in HT29 cells with gemcitabine; format: cell-based; conditions: Homo sapiens, HT-29, 50 nM gemcitabine, 24 hours, read-out: Gem pH2AX (S139) EC50
Description: 1 × 10^4 HT29 cells were seeded per well of a 96 well plate and treated with a combination of 50 nM gemcitabine plus increasing concentrations of V158411 for 24 hours. Following fixation with methanol, pH2AX was detected with a mouse monoclonal antibody (JBW301, Millipore) and a europium-labeled anti-mouse secondary antibody.

[1] = Pharmacokinetics of V158411 and irinotecan, single and combination administration; format: in vivo; conditions: mouse; for half-life / CL/F: female, Balb/C, plasma; for CL/F: read-out: CL or CL/F
Description: Dosing of animals and collection of samples was conducted by Quotient Bioresearch (Rushden) Ltd, UK. V158411 was administered by intravenous (IV) bolus injection to female Balb/C mice, male Sprague-Dawley rats or male beagle dogs. Plasma samples were prepared by protein precipitation with acetonitrile containing internal standard (IS; dextromethorphan, 0.5 μg/mL); the analysis plate was centrifuged at 3,000 rpm for 10 minutes at 4°C. […] The ratios of analyte against IS peak areas were calculated, and concentrations derived from calibration lines generated by Quanlynx (Waters Ltd.).
Pharmacokinetic parameters were calculated using the software package WinNonLin (Pharsight Corp.). Data was analyzed using noncompartmental analysis and fitted using plasma concentration versus time curves.

Colo205 xenografts = assay: Colo205 xenograft antitumor efficacy; format: in vivo
Source text: (§1) Xenograft studies were undertaken by Charles River Laboratories Discovery Services, North Carolina. On the day of tumor cell implant, Colo205 cells were harvested and resuspended in 50% Matrigel matrix (BD Biosciences) in PBS at a concentration of 5 × 10^6 cells/mL. Each test mouse received 1 × 10^6 Colo205 cells implanted subcutaneously (SC) in the flank of female athymic nude mice (HRLN or NCr nu/nu), and tumor growth was monitored as the average size approached 100-150 mm^3. The SW620 tumor line was maintained by serial SC transplantation in female athymic nude mice (HRLN nu/nu). Tumor fragments, approximately 1 mm^3 each, were implanted SC into the right flank of each animal and allowed to grow towards a target size of 100-150 mm^3. On day 1 of the study, tumors were randomized into treatment groups before compound administration.
(§2) V158411 was formulated in D5W and administered via IV injection into the tail vein. Cyclic treatment regimens were followed and treatment ranged from 2-3 cycles.
(§3) Tumor size was measured with electronic calipers and tumor volume calculated according to the formula ((width × width) × length) /2.
(§4) The study endpoint was defined as a tumor volume of 750 mm^3 for Colo205 or 1500 mm^3 for SW620, or day 60, whichever came first. Each animal was euthanized when its' tumor reached this endpoint. The time to endpoint (TTE) for each mouse was calculated from the equation TTE = (log10(endpoint volume)-b)/m where b is the intercept and m the slope of the line obtained by linear regression of a log-transformed tumor growth data set.

HT29 cells = assay: Checkpoint abrogation assay (gemcitabine, nocodazole, pHH3 (S10)); format: cell-based, human
Description: The ability of V158411 to abrogate gemcitabine induced S-phase arrest was further characterized using a checkpoint abrogation assay. Cells were pre-treated with gemcitabine for 16 hours followed by increasing concentrations of V158411 in the presence of nocodazole, an inhibitor of microtubule polymerization, for a further 24 hours. Mitotic cells were then scored for pHH3 (S10) expression. p53 defective HT29 cells exposed to gemcitabine, which induces arrest in S-phase, were negative for pHH3 (S10) staining. V158411 treatment abrogated the gemcitabine induced S-phase arrest allowing cells to progress through into mitosis where they were trapped by nocodazole. These cells stained positive for pHH3 and are indicative of checkpoint abrogation.

[2] = Tolerability (MTD) in female nu/nu mice; format: in vivo
Source text: Animals were weighed daily for the first five days then twice weekly thereafter for the duration of the study. The mice were observed frequently for overt signs of any adverse, treatment-related side effects, and clinical signs of toxicity recorded. Toxicity greater than a group mean body-weight loss of more than 20% or 1 in 10 treatment-related deaths was considered to be the maximum tolerated dose.

Chk2 = Chk2 (Homo sapiens, UniProt O96017); assay: Etoposide induced Chk2 autophosphorylation (pS516) in HT29 cells, immunoblotting; format: cell-based; set-up: endogenous in cells; host or cells: HT29; conditions: 1 hour compound then 25 μM etoposide 5 hours
Sequence of Chk2 (O96017 whole entry): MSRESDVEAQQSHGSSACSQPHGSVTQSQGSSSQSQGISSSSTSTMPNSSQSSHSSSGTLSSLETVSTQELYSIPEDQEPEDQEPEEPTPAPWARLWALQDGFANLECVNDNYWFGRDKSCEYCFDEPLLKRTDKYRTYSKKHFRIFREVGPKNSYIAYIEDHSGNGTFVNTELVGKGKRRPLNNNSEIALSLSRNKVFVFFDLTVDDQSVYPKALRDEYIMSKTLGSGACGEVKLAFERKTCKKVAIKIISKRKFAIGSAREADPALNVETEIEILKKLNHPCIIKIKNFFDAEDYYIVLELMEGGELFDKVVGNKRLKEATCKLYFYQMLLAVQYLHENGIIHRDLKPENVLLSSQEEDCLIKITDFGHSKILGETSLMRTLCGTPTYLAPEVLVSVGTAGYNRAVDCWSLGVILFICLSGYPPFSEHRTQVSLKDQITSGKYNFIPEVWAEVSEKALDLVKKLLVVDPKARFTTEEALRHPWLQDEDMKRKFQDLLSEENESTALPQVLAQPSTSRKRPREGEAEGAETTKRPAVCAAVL
Description: Figure 3 Effect of V158411 on etoposide, gemcitabine and camptothecin induced DNA damage checkpoint and cell cycle proteins A. HT29 cells were exposed to increasing concentrations of V158411 for 1 hour followed by 25 μM etoposide for a further 5 hours. Auto-phosphorylation of Chk1 and Chk2 was determined by immunoblotting. B. HT29 cells were treated with gemcitabine (25 nM) or camptothecin (50 nM) for 16 hours followed by increasing doses of V158411 for a further 24 hours. C. HT29 cells were treated with 500 nM V158411 for 1 hour, media removed and replaced with drug free. Cells were harvested at the indicated time points post the removal of V158411. D. HT29 cells were treated with 0 or 100 nM camptothecin for 16 hours followed by V158411 for 2 - 24 hours. After the indicated time, media was removed and replaced with drug free media. All cells were harvested 24 hours after the initial addition of V158411. Protein expression was characterized by immunoblotting as described in materials and methods.
Anti-pHistone H3 (S10) was obtained from Millipore; pCdc2 (Y15), pCdc25C (S216), Chk1, pChk1 (S317), pChk2 (S516), Cyclin B1, pH2AX (S139), GAPDH and Actin from Cell Signaling Technologies and pChk1 (S296) from Abcam. […] Protein concentration was determined using BCA kit (Pierce). […]

SW620 xenograft = SW620 xenograft antitumor efficacy
Source text: as §1, §2, §3, §4

[3] = other: V158411 intravenous, irinotecan intraperitoneal
[4] = other: irinotecan intraperitoneal, V158411 intravenous
[5] = Colo205, 75 mg/kg irinotecan IP followed by 30 mg/kg V158411 IV
[6] = Colo205, 75 mg/kg irinotecan IP followed by 60 mg/kg V158411 IV
[7] = SW620, 100 mg/kg irinotecan followed by 30 mg/kg V158411
[8] = SW620, 100 mg/kg irinotecan followed by 60 mg/kg V158411

In the case of `CN(C)CC(C)(C)COc1ccc2[nH]c(-c3cc(NC(=O)c4cnn(Cc5ccccc5)c4)c[nH]c3=O)cc2c1` [V158411], the EC50 (pH2AX (S139)) is reported as 51 nM, the half-life [1, 3] is reported as 3.4 h and the CL/F [1, 3] is reported as 17.7 mL/min/kg. For the same compound, the half-life [1, 4] was 3.3 h, the CL/F [1, 4] was 8.2 mL/min/kg and the AUClast fold change ([1]; combination (C) versus single administration (I)) was 2.2 fold. For the same compound, the “Median TTE” value (Colo205 xenografts; Colo205, 60 mg/kg IV V158411 monotherapy, untreated 19.8 days) was 22.3 days, the “single agent anti-tumor activity” value (Colo205 xenografts; Colo205, 60 mg/kg V158411 monotherapy) was “inactive; also recorded: no single agent activity” and the “%TGD” value (Colo205 xenografts; [5]) was 129%. The T-C (Colo205 xenografts; [5]) was 25.6, the “Median TTE” value (Colo205 xenografts; Colo205, 75 mg/kg irinotecan IP followed by 30 mg/kg V158411 IV 2 hours later, q7d 3 cycles) was 45.4 days and the “%TGD” value (Colo205 xenografts; [6]) was 203%. The T-C (Colo205 xenografts; [6]) was 40.2, the “Median TTE” value (Colo205 xenografts; Colo205, 75 mg/kg irinotecan IP followed by 60 mg/kg V158411 IV 2 hours later, q7d 3 cycles, study end day 60) was 60.0 days and 60 days and the “mean body weight nadir” value (Colo205 xenografts; Colo205, irinotecan plus V158411 combination therapy, day 4) was −2.7%. The “concentration of maximal abrogation of gemcitabine induced S-phase arrest” value (HT29 cells) was “around 300 nM”, the EC50 (HT29 cells; Homo sapiens, HT-29, gemcitabine 16 hours then compound plus nocodazole 24 hours, read-out: Gem pHH3 (S10) MI EC50 (abrogation of gemcitabine induced S-phase arrest)) was 79 nM and the “toxicity / maximum tolerated dose” value ([2]; IV bolus once or twice weekly, doses up to 100 mg/kg) was “minimal toxicity at doses up to 100 mg/kg; also recorded: the maximum tolerated dose of V158411 has yet to be found”. The “effect on irinotecan toxicity” value ([2]; MTD irinotecan (100 mg/kg IP) plus V158411 up to 100 mg/kg IV 2 hours later, q7d 3 weeks) was “did not result in increased irinotecan toxicity; also recorded: did not affect the toxicity of irinotecan”, the “acute, dose-related effects” value ([2]; single agent IV, self-limiting, minimized by slow infusion) was “flushing, tachycardia, exophthalmos” and the “effect on body weight” value ([2]; single agent, 60 to 100 mg/kg IV q7d for 21 days, female nude mice) was “no effect on body weight loss”. For the same compound, the IC50 (Chk2) was 904 nM, the “%TGD” value (SW620 xenograft; [7]) was 117% and the T-C (SW620 xenograft; [7]) was 15.5. The “Median TTE” value (SW620 xenograft; SW620, 100 mg/kg irinotecan followed by 30 mg/kg V158411 2 hours later) was 28.8 days, the “%TGD” value (SW620 xenograft; [8]) was 154% and the T-C (SW620 xenograft; [8]) was 21.3. The “Median TTE” value (SW620 xenograft; SW620, 100 mg/kg irinotecan followed by 60 mg/kg V158411 2 hours later) was 35.1 days, the “single agent anti-tumor activity” value (SW620 xenograft; SW620, V158411 monotherapy) was “did not inhibit tumor growth; also recorded: no single agent activity” and the “mean body weight nadir” value (SW620 xenograft; SW620, irinotecan plus 60 mg/kg V158411, day 5) was −13.3%.
